Measurements from patent US12565494B2, “Inhibitors of human respiratory syncytial virus and metapneumovirus” (priority 2022, dated 2026).
Where two headings read alike, the source gives them in different places.

Key:
hMPV-GFP virus = test: microbe, parasite or virus in culture; format: cell-based, Human Metapneumovirus; conditions: VERO cells, hMPV-GFP MOI=1.25, 48 hrs, GFP-expressing cells counted
Method: GFP expressing rgHMPV #3 p3 was generated in Dr. Buchholz's lab (Biacchesi S. et al., J Virol. 2007 June; 81(11): 6057-6067) and propagated in VERO cells (ATCC Cat #CCL-81) with a Multiplicity of Infection (MOI) of 0.1. Virus was harvested 4 days after infection by collecting cultured material and was freeze-thaw cycled in liquid nitrogen twice. Working virus stocks were generated from thawing frozen samples in 37° C. water bath, which were centrifuged at 218 g for 15 min at 4° C. 1/10 of 10×SPG (Biological Industries 06-3061-01-5A) were added and then mixed. The supernatant was aliquoted, frozen in liquid nitrogen, and then transferred to a −80° C. freezer for storage. Virus titer was determined by performing titration test in 96-well plates and calculate approximate virus titer using GFP event/well data.
Compound plates were prepared by dispensing compounds dissolved in DMSO into wells of a 384 well Corning 3985 polystyrene flat clear bottom optical imaging microplate (202.5 nL/well) using an ECHO acoustic dispenser. Each compound was tested in 10-point serial 3-fold dilution (typical final concentrations: 40,300 nM-2 nM). […] Continuous culture of VERO cells was maintained in complete culture media (OptiMEM supplemented with 2 mM GlutaMAX™ and 100 U/ml Penicillin-Streptomycin). To set up the assay, VERO cells were trypsinized with 0.25% Trypsin-EDTA until cells were dislodged, then cells were re-suspended with 1 mL FBS. Cells were spundown at 300 g for 5 minutes and cells were washed twice with culture media and counted using default parameters on ViCell. Cells were then diluted to 100,000 cells/mL (5,000 cells/50 μL) in complete culture media+TrypLE Select (80 μL/mL). hMPV-GFP virus was added to cells at 125,000 pfu/mL (MOI=1.25) and were mixed by gentle inversion. 10 μL/well of 100% DMSO was dispensed to CellTiter-Glo (CTG) assay Max_E controls wells. Cells were dispensed at 50 μL/well using Bravo and 50 μL filtered tips into compound plates. Plates were covered with MicroClime lids and loaded with 7.5 mL of assay media to minimize evaporation. Plates were lightly shaken for 10 minutes at room temperature and then incubated at 37° C. and 5% CO2 for 48 hrs. Following incubation, distinct GFP-expressing cells were counted using an Acumen imaging system with appropriate settings. A same-well CTG assay was performed by adding 10 μL/well reconstituted CellTiter-Glo reagent (Promega G7573) and plates were read on PerkinElmer Envision according to manufacturer's instructions. Raw data were loaded and analyzed in ActivityBase. Antiviral IC50 and cytotoxicity CC50 values were determined using a 4 parameter logistic fit based on the Levenberg-Marquardt algorithm. Model: 205-4 Parameter Logistic.

RSV-A2-GFP virus = test: microbe, parasite or virus in culture; format: cell-based, Human Respiratory Syncytial Virus; conditions: Calu-1 cells, RSV-A2-GFP MOI=1.2, 96 hrs, GFP-expressing cells counted
Method: To set up the assay, ARF vials were thawed in a 37° C. water bath and a control compound was resuspended in assay media DMEM (Dulbecco's Modified Eagle Medium) containing 2% FBS, 100 U/ml Penicillin-Streptomycin.
GFP sequence was derived from pJTI™ R4 Dest CMV N-EmGFP pA Vector (Invitrogen) and was cloned into the intergenic sequence between wild-type RSV-A2 P and M genes using standard recombineering techniques. Recombinant RSV-A2-GFP was propagated in Hep2 cells (human cells contain HeLa marker chromosomes and were derived via HeLa contamination, ATCC CCL-23) with a Multiplicity of Infection (MOI) of 0.1. Virus was harvested 3 days after infection by collecting all culture material and then freeze-thawing the mixture for 5 minutes. Working virus stocks were generated by thawing frozen viral cultures in 37° C. water bath, which were centrifuged at 218 g for 15 min at 4° C. 1/10 of 10×SPG (Biological Industries 06-3061-01-5A) were added and then mixed. The supernatant was aliquoted, frozen in liquid nitrogen, and then transferred to a −80° C. freezer for storage. Virus titer was determined by automated plaque assay in HEp-2 cells following methods described previously (Wen Z. et al.; 2019).
Calu-1 cells were purchased from ATCC (Cat #HTB-54) and were expanded in growth media (DMEM containing 10% FBS, 100 U/ml Penicillin-Streptomycin). To make ARF, cell culture media was removed and discarded and the cell layer was briefly rinsed with PBS to remove serum. 2.5 mL of TrypLE Express solution were added and cells incubated until dislodged, to which growth media was added and the cells were resuspended by gentle pipetting. Cells were counted for concentration and viability as determined by ViCell. Cells were centrifuged at RT, 300 g for 5 minutes to pellet cells. The supernatant was gently aspirated and the pellet was flicked to loosen cells. Cells were resuspended in an appropriate volume of freezing medium (DMEM containing 10% DMSO, 10% FBS, 100 U/ml Penicillin-Streptomycin) to achieve a concentration of 5×10^6 cells/mL. 1 mL aliquots of the cell suspension were transferred to freezing vials. The vials were put into an upright container in a −80° C. freezer overnight before transferring vials to liquid nitrogen for storage
Assay ready freeze-down (ARF, generation described separately) Calu-1 cells (ATCC HTB-54) were used. Compound plates were prepared by dispensing compounds dissolved in DMSO into the wells of a 384 well Corning® 3985 plate with an ECHO acoustic dispenser and compounds were tested in 10-point serial 3-fold dilution. […] To set up the assay, ARF vial(s) were thawed in a 37° C. water bath and were then resuspended into assay media (DMEM containing 2% FBS, 100 U/ml Penicillin-Streptomycin). Cells were counted using default parameters on ViCell and diluted to 20,000 cells/mL in assay media. RSV-A2-GFP virus was added to cells at 24,000 pfu/ml (MOI=1.2) and mixed by gentle inversion. 10 μL/well of 100% DMSO was dispensed as CellTiter-Glo (CTG) assay Max_E controls wells. The cells were dispensed at 50 μL/well using Bravo with 50 μL filtered tips into compound plates. Plates were covered with MicroClime lids, loaded with 7.5 mL of assay media to minimize evaporation, and were incubated at 37° C. and 5% CO2 for 96 hrs. Following incubation, distinct, GFP-expressing cells were counted using an Acumen imaging system with appropriate settings. A same-well CTG assay was performed by adding 10 μL/well reconstituted CellTiter-Glo reagent (Promega G7573) and plates were read on PerkinElmer Envision according to manufacturer's instructions. Raw data were loaded and analyzed in ActivityBase. Antiviral IC50 and cytotoxicity CC50 values were determined using a 4 parameter logistic fit based on the Levenberg-Marquardt algorithm. Model: 205-4 Parameter Logistic.

[1] = read-out: RSV EC50, Table II Summary of Activities for hMPV
[2] = human respiratory syncytial virus, Calu-1, 96 h, read-out: RSV EC50, Table I Summary of Activities for RSV
[3] = Vero, 48 h, read-out: RSV EC50, Table II Summary of Activities for hMPV
[4] = read-out: RSV EC50, Table I Summary of Activities for RSV

SMILES: CC(O)c1nc(-c2cscn2)sc1C(=O)N1C[C@@H]2[C@H](C1)[C@H]2Oc1cc(C(C)(C)N)cc(-c2ccc(F)cc2)n1 (single isomer, unassigned; enantiomer 1) [Example 16A]
- EC50 (hMPV-GFP virus; [1]): 10 to 100 nM
- EC50 (RSV-A2-GFP virus; [2]): < 10 nM

SMILES: Cn1nc(-c2cscn2)cc1C(=O)N1C[C@H]2[C@H](Oc3cc(C(C)(C)N)cc(-c4ccc(F)cc4)n3)[C@@]2(C)C1 (single isomer, unassigned; enantiomer 1) [Example 43A]
- EC50 (hMPV-GFP virus; [3]): 10 to 100 nM
- EC50 (RSV-A2-GFP virus; [2]): < 10 nM

SMILES: Cn1nc(-c2ncco2)cc1C(=O)N1C[C@H]2[C@H](Oc3cc(C(C)(C)N)cc(-c4ccc(F)cc4)n3)[C@@]2(C)C1 (single isomer, unassigned; enantiomer 1) [Example 44A]
- EC50 (hMPV-GFP virus; [3]): 10 to 100 nM
- EC50 (RSV-A2-GFP virus; [2]): < 10 nM

SMILES: Cn1nc(-c2ccon2)cc1C(=O)N1C[C@H]2[C@H](Oc3cc(C(C)(C)N)cc(-c4ccc(F)cc4)n3)[C@@]2(C)C1 (single isomer, unassigned; enantiomer 1) [Example 45A]
- EC50 (hMPV-GFP virus; [3]): > 100 nM
- EC50 (RSV-A2-GFP virus; [2]): < 10 nM

SMILES: Cn1nc(-c2cscn2)cc1C(=O)N1C[C@H]2[C@H](Oc3cc(C(C)(C)N)cc(N4CCC(C)(C)CC4)n3)[C@@]2(C)C1 (single isomer, unassigned; enantiomer 1) [Example 46A]
- EC50 (hMPV-GFP virus; [3]): > 100 nM
- EC50 (RSV-A2-GFP virus; [2]): < 10 nM

SMILES: Cn1nc(-c2cscn2)cc1C(=O)N1C[C@@H]2[C@H](C1)[C@H]2Oc1cc(C2(C)CCN2)cc(-c2ccc(F)cc2)n1 (single isomer, unassigned; enantiomer 1) [Example 55A]
- EC50 (hMPV-GFP virus; [1]): 10 to 100 nM
- EC50 (RSV-A2-GFP virus; [2]): < 10 nM

SMILES: Cn1nc(-c2cscn2)cc1C(=O)N1C[C@@H]2[C@H](C1)[C@H]2Oc1cc(C2(C)CCCN2)cc(-c2ccc(F)cc2)n1 (single isomer, unassigned; enantiomer 1) [Example 56A]
- EC50 (hMPV-GFP virus; [3]): > 100 nM
- EC50 (RSV-A2-GFP virus; [2]): < 10 nM

SMILES: Cn1nc(-c2cscn2)cc1C(=O)N1C[C@@H]2[C@H](C1)[C@H]2Oc1cc(C(C)(N)CO)cc(-c2ccc(F)cc2)n1 (single isomer, unassigned; enantiomer 1) [Example 57A]
- EC50 (hMPV-GFP virus; [3]): > 100 nM
- EC50 (RSV-A2-GFP virus; [2]): < 10 nM

SMILES: Cn1nc(-c2ncco2)cc1C(=O)N1C[C@@H]2C(Oc3cc(C(C)(N)CO)cc(-c4ccc(F)cc4)n3)[C@@H]2C1 (single isomer, unassigned; enantiomer 1) [Example 58A]
- EC50 (hMPV-GFP virus; Table II Summary of Activities for hMPV, read-out: RSV EC50): > 100 nM
- EC50 (RSV-A2-GFP virus; Table I Summary of Activities for RSV, read-out: RSV EC50): < 10 nM

SMILES: CC(N)c1cc(O[C@H]2[C@@H]3CN(C(=O)c4cc(-c5cscn5)nn4C)C[C@@H]32)nc(-c2ccc(F)cc2)c1 (single isomer, unassigned; enantiomer 1) [Example 61A]
- EC50 (hMPV-GFP virus; [3]): > 100 nM
- EC50 (RSV-A2-GFP virus; [2]): < 10 nM

SMILES: CC(N)c1cc(O[C@H]2[C@@H]3CN(C(=O)c4cc(-c5ccon5)nn4C)C[C@@H]32)nc(-c2ccc(F)cc2)c1 (single isomer, unassigned; enantiomer 1) [Example 62A]
- EC50 (hMPV-GFP virus; [3]): > 100 nM
- EC50 (RSV-A2-GFP virus; [2]): < 10 nM

SMILES: Cn1nc(-c2cscn2)cc1C(=O)N1C[C@@H]2[C@H](C1)[C@H]2Oc1cc(C(C)(C)N)cc(C2CCC(C)(C)CC2O)n1 (single isomer, unassigned; enantiomer 1) [Example 66A]
- EC50 (hMPV-GFP virus; [3]): > 100 nM
- EC50 (RSV-A2-GFP virus; [2]): < 10 nM

SMILES: Cn1nc(-c2cscn2)cc1C(=O)N1C[C@@H]2[C@H]1C[C@H]2Oc1cc(C(C)(C)N)cc(-c2ccc(F)cc2)n1 (single isomer, unassigned; enantiomer 2) [Example 1]
- EC50 (hMPV-GFP virus; [3]): > 100 nM
- EC50 (RSV-A2-GFP virus; [2]): < 10 nM

SMILES: Cn1nc(-c2ncco2)cc1C(=O)N1C[C@@H]2[C@H]1C[C@H]2Oc1cc(C(C)(C)N)cc(-c2ccc(F)cc2)n1 (single isomer, unassigned; enantiomer 2) [Example 2]
- EC50 (hMPV-GFP virus; [3]): > 100 nM
- EC50 (RSV-A2-GFP virus; [2]): 10 to 100 nM

SMILES: CC(O)c1nc(-c2cscn2)sc1C(=O)N1C[C@@H]2[C@H](C1)[C@H]2Oc1cc(C(C)(C)N)cc(-c2ccc(F)cc2)n1 (single isomer, unassigned; enantiomer 2) [Example 16B]
- EC50 (hMPV-GFP virus; [1]): > 100 nM
- EC50 (RSV-A2-GFP virus; [4]): < 10 nM

SMILES: Cn1nc(-c2cscn2)cc1C(=O)N1C[C@H]2[C@H](Oc3cc(C(C)(C)N)cc(-c4ccc(F)cc4)n3)[C@@]2(C)C1 (single isomer, unassigned; enantiomer 2) [Example 43B]
- EC50 (hMPV-GFP virus; [3]): > 100 nM
- EC50 (RSV-A2-GFP virus; [2]): < 10 nM

SMILES: Cn1nc(-c2ncco2)cc1C(=O)N1C[C@H]2[C@H](Oc3cc(C(C)(C)N)cc(-c4ccc(F)cc4)n3)[C@@]2(C)C1 (single isomer, unassigned; enantiomer 2) [Example 44B]
- EC50 (hMPV-GFP virus; [1]): 10 to 100 nM
- EC50 (RSV-A2-GFP virus; [4]): < 10 nM

SMILES: Cn1nc(-c2ccon2)cc1C(=O)N1C[C@H]2[C@H](Oc3cc(C(C)(C)N)cc(-c4ccc(F)cc4)n3)[C@@]2(C)C1 (single isomer, unassigned; enantiomer 2) [Example 45B]
- EC50 (hMPV-GFP virus; [1]): > 100 nM
- EC50 (RSV-A2-GFP virus; [4]): < 10 nM

SMILES: Cn1nc(-c2cscn2)cc1C(=O)N1C[C@H]2[C@H](Oc3cc(C(C)(C)N)cc(N4CCC(C)(C)CC4)n3)[C@@]2(C)C1 (single isomer, unassigned; enantiomer 2) [Example 46B]
- EC50 (hMPV-GFP virus; [1]): > 100 nM
- EC50 (RSV-A2-GFP virus; [4]): < 10 nM
